Results taken from US20090311237A1, “Combination therapy using a soluble hyaluronidase and a bisphosphonate” (priority 2008, published 2009).
Where two headings read alike, the source gives them in different places.

Test: Pharmacokinetics of ZA in pig serum after IV or SC infusion with or without rHuPH20 (LC-MS-MS, non-compartmental analysis)
Type: in vivo
Details: female, Yorkshire, pig, serum, […], pig; for bioavailability / Tmax / half-life / Vd/F: sc, SC ZA […], no rHuPH20 (Study Group 2), n=4; for concentration at 0.05 h / concentration at 5 min / concentration at 0.333 h / concentration at 0.5 h / concentration at 1 h: subcutaneous, Study Group 2, SC, ZA […], rHuPH20 0 U/mL, read-out: Zoledronic Acid Serum Concentration
Procedure: A pharmacokinetic study of zoledronic acid (ZA) co-administered with rHuPH20 in female Yorkshire swines was conducted. The primary objective of the study was to determine the bioavailability of zoledronic acid dosed via subcutaneous (SC) co-administration with human recombinant hyaluronidase PH20 (rHuPH20) and to compare the overall exposure to an equivalent IV dose.
Animals in Study Group 1 were dosed with 0.15 mg/kg ZA given via a 20-minute IV infusion. Animals in Study Groups 2 and 3 were dosed subcutaneously (SC) with 0.15 mg/kg ZA without and with rHuPH20, respectively, in different SC delivery volumes.
Following ZA dose administration, serial blood samples were collected via vascular access ports (VAPs) for serum preparation and determination of ZA concentrations. Blood collection times were at 1, 3, 5, 10, 15, 20, 30, 45, and 60 minutes, and at 1.5, 2, 3, 4, 6, 8, 10, 24, 48, and 72 hours post dose. Urine samples were also collected to compare excretion characteristics between IV and SC routes of administration. Collection times for urine were at 15 minutes before dosing (−15 min.), continuously from dose initiation to 2 hours post dose, and at 4, 6, 8, and 24 hours post dose thereafter.
Serum concentration of ZA was determined using a qualified LC-MS-MS assay after derivatization with diazomethane (Zhu, L S et al. (2006) Rapid Commun. Mass Spectrom. 20: 3421-3426; “Qualification Data of An LC-MS/MS Method for the Determination of Zoledronate in Porcine Serum”, MDS Pharma Services Study No. AA43671-01, Report Date 14 Sep. 2007). The assay range was from 2.0 to 400 ng/mL with a lower limit of quantitation (LLOQ) at 2.0 ng/mL. Urine concentration of ZA was determined by a similar well qualified LC-MS-MS method (“Qualification Data of An LC-MS/MS Method for the Determination of Zoledronate in Porcine Urine”, MDS Pharma Services Study No. AA43671-02, Report Date 14 Sep. 2007) with an assay LLOQ at 10 ng/mL.
Pharmacokinetic (PK) analyses of ZA serum concentration versus time data were conducted using WinNonlin v5.1 (Pharsight, Mountain View, Calif.). Non-compartmental analysis was used for derivation of primary and secondary pharmacokinetic (PK) parameters. AUC, Cmax, and Tmax were compared between dose routes, between co-administration with rHuPH20, and with dose of rHuPH20.

O=P(O)(O)C(O)(Cn1ccnc1)P(=O)(O)O [ZA, 1-hydroxy-2-(1H-imidazol-1-yl)ethylidene-1,1-bisphosphonic acid]
bioavailability (read-out: SC Bioavailability (0-8 h), mean): 87.7 ± 15% | bioavailability (read-out: SC Bioavailability (0-8 h), median): 86.9% | Tmax (read-out: Tmax, mean): 12.6 min | Tmax (read-out: Tmax, median): 10.2 min | half-life (read-out: T½ λz, mean (converted)): 64.2 ± 14.4 min | half-life (read-out: T½ λz, median (converted)): 59.4 min | Vd/F (read-out: Vss/F, mean): 0.607 L/kg | Vd/F (read-out: Vss/F, median): 0.625 L/kg | Vd/F (read-out: Vz/F, mean): 0.784 L/kg | Vd/F (read-out: Vz/F, median): 0.832 L/kg | concentration at 0.05 h (pig ID 59, 100 mL, 16 min): 13.9 ng/mL | concentration at 0.05 h (pig ID 60, 100 mL, 16 min): 51.5 ng/mL | concentration at 0.05 h (pig ID 62, 50 mL, 8 min): 97.6 ng/mL | concentration at 0.05 h (pig ID 69, 25 mL, 4 min): 144 ng/mL | concentration at 0.05 h (pig ID 70, 10 mL, 1.6 min): 174 ng/mL | concentration at 5 min (pig ID 59, 100 mL, 16 min): 32.4 ng/mL | concentration at 5 min (pig ID 60, 100 mL, 16 min): 85 ng/mL | concentration at 0.333 h (pig ID 59, 100 mL, 16 min): 130 ng/mL | concentration at 0.333 h (pig ID 60, 100 mL, 16 min): 255 ng/mL | concentration at 0.333 h (pig ID 62, 50 mL, 8 min): 208 ng/mL | concentration at 0.333 h (pig ID 69, 25 mL, 4 min): 210 ng/mL | concentration at 0.333 h (pig ID 70, 10 mL, 1.6 min): 233 ng/mL | concentration at 0.5 h (pig ID 59, 100 mL, 16 min): 120 ng/mL | concentration at 0.5 h (pig ID 60, 100 mL, 16 min): 211 ng/mL | concentration at 0.5 h (pig ID 62, 50 mL, 8 min): 149 ng/mL | concentration at 0.5 h (pig ID 69, 25 mL, 4 min): 115 ng/mL | concentration at 0.5 h (pig ID 70, 10 mL, 1.6 min): 191 ng/mL | concentration at 1 h (pig ID 59, 100 mL, 16 min): 44.6 ng/mL | concentration at 1 h (pig ID 60, 100 mL, 16 min): 149 ng/mL | concentration at 1 h (pig ID 62, 50 mL, 8 min): 81.6 ng/mL | concentration at 1 h (pig ID 69, 25 mL, 4 min): 74.6 ng/mL
